# Reference: patent US8361999B2, “Methods of treating cholesterol gallstone disease with ezetimibe” (Pontificia Universidad Catolica de Chile, priority 2005, dated 2013)
# Test system: cholesterol and bile salt absorption
# Assay: Intestinal absorption of cholesterol and bile salts by fecal excretion of neutral and acidic sterols
# Type: in vivo, mouse
# Details: for Fecal excretion of bile acids / Fecal excretion of neutral sterols: pooled feces; for Fecal excretion of bile acids: days 12-14; for Fecal excretion of neutral sterols: last three days of 14
# Method: Surgery and sample harvest. The groups were maintained for 14 days (protocol #1) or 30 days (protocol #2) in the different experimental conditions. During the last three days of the protocols, 24 h depositions were collected from the different groups (pool) to determine the fecal excretion of neutral sterols (cholesterol) and acidic sterols (bile salts). At the end of the time established in the protocols, the mice were anesthetized (between 08:00-10:00 AM) with an intraperitoneal pentobarbital injection in doses of 4.5 mg per 100 gr body weight (Amigo et al., 2000) and subjected to surgery. Standardized surgery consists in an extended […] and visualization of abdominal organs, including liver, biliary tree and gallbladder. First, we performed a resection of the gallbladder (cholecystectomy), with the cystic duct previously ligated (Amigo et al., 2002; Amigo et al., 2000; Amigo et al., 2003b). The gallbladder is removed and visually inspected to determine the presence of gallstones. Then, the gallbladder bile is extracted to analyze the presence of cholesterol crystals in the fresh samples under the microscope with polarized light (20×). Aliquots are stored at −20° C. for subsequent chemical analysis. Afterwards, the common biliary duct is cannulated (biliary fistula) with a P-10 polyethylene cannula to collect bile during 15 minutes, determine bile flow by gravimetry (1 g bile=1 ml; bile flow is expressed as μl/min/g of mouse liver) and for posterior chemical analysis of biliary lipids and glutathione, as specified later. […] Then, the liver is removed, weighted, frozen in liquid nitrogen and stored at −80 for subsequent analyses. The plasma is separated by centrifugation at 1,500 rpm and stored at −80° C. for later analysis. The animal protocols were approved by our institution Ethics Committee and the animals were treated according to international care rules for experimental animals.
# Intestinal absorption of cholesterol and bile salts. The capacity of Ezetimibe to inhibit cholesterol and bile salt absorption was indirectly determined by quantification of neutral sterols (cholesterol) and acidic sterols (bile acids) present in the feces collected on day 12, 13 and 14 of the experiment (three days). In order to determine cholesterol (neutral sterols) fecal excretion, the feces were dried at 50° C. for three days and then weighted to obtain an average of fecal excretion per day (in grams). The feces were homogenized in a mortar, and 5 ml 2N NaOH:methanol, 1:1 are added per 100 mg (dry weight) aliquots of the homogenate. The sample is vortex and incubated at 60° C. for 1 h for saponification, then it is cooled and 5 ml petroleum ether is added followed by vigorous agitation to obtain the separation of the hydrophobic and hydrophilic phases. The samples are then centrifuged at 1,000 rpm for 10 minutes and the hydrophobic phase (upper layer) is recovered. Second and third extractions are performed by adding 5 ml petroleum ether to the hydrophilic phase. The hydrophobic phases are dried under gaseous nitrogen and the lipids are resuspended in 1 ml chloroform. 50 μl aliquots, in duplicate, are dried at room temperature, and total cholesterol is quantified according to the enzymatic method described above. The values obtained are expressed as μmoles cholesterol/day/100 g of mouse (Miettinen et al., 1965). In order to determine fecal excretion of bile acids the mice feces were collected during three days (days 12-14), dried at 50° C. for one week and weighted. The feces are then homogenized in a mortar; (^14C) cholic acid, 200,000 cpm is added to 1 g of the homogenate to determine the degree of recovery. The samples are then mixed with NaBr, NaOH and HCl, dissolved in ethanol and incubated at 120° C. for 8 h in a reflux system. The hydrolyzed fecal samples are resuspended in NaOH and dried under gaseous N2. The pellet obtained is resuspended in ethanol and run through Sep-Pak columns to eliminate all bile salts contaminants. […]
structure (smiles),measurement,setting,value
"O=C1[C@H](CC[C@H](O)c2ccc(F)cc2)[C@@H](c2ccc(O)cc2)N1c1ccc(F)cc1 [Ezetimibe, (−)-1-(4-fluorophenyl)-(3R)-[3-(4-fluorophenyl)-(.S)-hydroxypropyl]-(4S)-(4-hydroxyphenyl)-2-azetidinone]",Fecal excretion of bile acids,Chow + Ezetimibe,55.42 μmol/day/100 g mouse
same,Fecal excretion of neutral sterols,Chow + Ezetimibe,19.98 μmol/day/100 g mouse
same,Fecal excretion of bile acids,Lithogenic + Ezetimibe,909.20 μmol/day/100 g mouse
same,Fecal excretion of neutral sterols,Lithogenic + Ezetimibe,165.79 μmol/day/100 g mouse
same,effect on fecal excretion of bile salts,both on control and lithogenic diets,does not significantly affect
same,increment of fecal excretion of neutral sterols vs control diet without Ezetimibe,control diet,37%
same,fecal excretion of neutral sterols (cholesterol) higher than in mice not treated with Ezetimibe,lithogenic diet,55%
